Laboratory results taken from US8822510B2, “Substituted 3-phenyl-1,2,4-Oxadiazole compounds” (Bristol-Myers Squibb Company, priority 2010, dated 2014).

System: circulating lymphocytes
Test: Blood Lymphocyte Reduction Assay (BLR) in Rodents
Assay type: in vivo
Details: Lewis rats, oral, vs vehicle group
Method: Lewis rats were dosed orally with test article (as a solution or suspension in the vehicle) or vehicle alone (polyethylene glycol 300, “PEG300”). Blood was drawn at 4 hr and 24 h by retro-orbital bleeding. Blood lymphocyte counts were determined on an ADVIA 120 Hematology Analyzer (Siemens Healthcare Diagnostics). The results were measured as a reduction in the percentage of circulating lymphocytes as compared to the vehicle treated group at the 4 hr and 24 hr measurement. The results represent the average results of all animals within each treatment group (n=3-4).
The following examples were tested in the Blood Lymphocyte Reduction assay (BLR) described hereinabove and the results are shown in Table C for rats.

Row | SMILES | % REDUCTION IN LYMPHOCYTES AT 4 HR. (10.0 mg/kg) | % REDUCTION IN LYMPHOCYTES AT 4 HR. (20.0 mg/kg)
1 | CC(C)(CCCc1nc(-c2ccc(CN3CC(C(=O)O)C3)cc2)no1)c1ccc(F)cc1 [Example 128, 1-(4-(5-(4-(4-fluorophenyl)-4-methylpentyl)-1,2,4-oxadiazol-3-yl)benzyl)-3-azetidinecarboxylic acid] | 80% | –
2 | O=C(O)C[C@@H]1CC(c2ccc(-c3noc(CCC4(c5ccccc5)CCCCC4)n3)cc2)=NO1 [Example 133, (S)-(3-(4-(5-(2-(1-phenylcyclohexyl)ethyl)-1,2,4-oxadiazol-3-yl)phenyl)-4,5-dihydro-5-isoxazolyl)acetic acid] | – | 84%
